“And” between values parts separate entries of the source, which are not always exact repeats. Equal values may be shown once.
Test: Concentration of paracetamol and its metabolites in plasma, CSF and brain cortex by LC-MS/MS
Method: Drug injection protocol is illustrated in Fig. 1.
Male and female postnatal P4 pups and 7–8 week-old non-pregnant females were used. […] In combination therapy experiments, this dose was accompanied by one of the 7 other drugs (Table 1). For all experiments, animals were terminally anesthetized 30 min after the drug injection using inhaled isoflurane (IsoFlo 100% w/w, Abbott Laboratories), and blood, CSF, and brain samples were collected. Blood was collected directly from the right cardiac ventricle, CSF from the cisterna magna, and cortical brain samples from the frontal/parietal lobes dorsal to the lateral ventricles as described previously.
Pregnant E19 dams were anesthetized with ip urethane injection (25% w/v urethane, Sigma, 1 ml/100 g body weight) and placed on a 39 °C heating pad in the supine position. An endotracheal catheter was inserted to maintain a clear airway. Catheters were inserted into the femoral vein and artery for iv drug administration and arterial blood sampling respectively. The cannula was flushed with 0.5 ml of heparinized saline (Hospira Inc, 5,000 units/ml) after drug administration and following each arterial blood sample. Following drug administration to the dams, fetuses were exteriorized and serially collected starting at 30 min post-maternal injection. […] At collection, the viability of each fetus was assessed (presence of a heartbeat, the colour of the umbilical vessels) and blood, CSF, and brain samples were taken along with a time-matched maternal blood sample from the femoral artery. At the end of the experiment, a final maternal blood sample was taken directly from the left cardiac ventricle, and CSF and brain samples were collected.
This method has been described previously for valproate, lamotrigine, and olanzapine and was applied in the present study. Simultaneous quantification was performed for all compounds in plasma, brain, and CSF samples following the addition of respective stable isotope-labeled internal standards.
Linear response range was determined in untreated control rat plasma for each compound at 0.1, 1, 10, 50, 100, 200, 400, and 800 µg/ml.

[1] = E19 rats, maternal iv paracetamol 15 mg/kg + cimetidine 11 mg/kg (PARA+CIM, n=10), median (IQR)
[2] = E19 rats, maternal iv paracetamol 15 mg/kg + digoxin 0.03 mg/kg (PARA+DIG, n=9), median (IQR)
[3] = E19 rats, maternal iv paracetamol 15 mg/kg + lamotrigine 6 mg/kg (PARA+LTG, n=10), median (IQR)
[4] = E19 rats, maternal iv paracetamol 15 mg/kg + olanzapine 0.15 mg/kg (PARA+OLZ, n=10), median (IQR), all values if <3 detected
[5] = E19 rats, maternal iv paracetamol 15 mg/kg + valproate 30 mg/kg (PARA+VPA, n=10), median (IQR)
[6] = E19 rats, maternal iv paracetamol 15 mg/kg + valproate 30 mg/kg (PARA+VPA, n=10), median (IQR), all values if <3 detected
[7] = E19 rats, maternal iv paracetamol 15 mg/kg monotherapy (PARA, n=10), median (IQR)
[8] = P4 rats, 30 min after ip paracetamol 15 mg/kg + cimetidine 11 mg/kg (PARA+CIM, n=4), median (IQR)
[9] = P4 rats, 30 min after ip paracetamol 15 mg/kg + digoxin 0.03 mg/kg (PARA+DIG, n=4), median (IQR)
[10] = P4 rats, 30 min after ip paracetamol 15 mg/kg + fluvoxamine 1.5 mg/kg (PARA+FLX, n=4), median (IQR)
[11] = P4 rats, 30 min after ip paracetamol 15 mg/kg + fluvoxamine 1.5 mg/kg (PARA+FLX, n=4), median (IQR) or individual values
[12] = P4 rats, 30 min after ip paracetamol 15 mg/kg + lithium 3.2 mg/kg (PARA+Li, n=4), median (IQR)
[13] = P4 rats, 30 min after ip paracetamol 15 mg/kg + olanzapine 0.15 mg/kg (PARA+OLZ, n=4), median (IQR)
[14] = P4 rats, 30 min after ip paracetamol 15 mg/kg monotherapy (PARA, n=4), median (IQR)
[15] = non-pregnant adult rats, 30 min after ip paracetamol 15 mg/kg + fluvoxamine 1.5 mg/kg (PARA+FLX, n=4), median (IQR)
[16] = non-pregnant adult rats, 30 min after ip paracetamol 15 mg/kg + fluvoxamine 1.5 mg/kg (PARA+FLX, n=4), median (IQR), individual values if <3 samples
[17] = non-pregnant adult rats, 30 min after ip paracetamol 15 mg/kg + olanzapine 0.15 mg/kg (PARA+OLZ, n=4), median (IQR)
[18] = non-pregnant adult rats, 30 min after ip paracetamol 15 mg/kg monotherapy (PARA, n=6), median (IQR)
[19] = P4 rats, 30 min after ip paracetamol 15 mg/kg + lamotrigine 6 mg/kg (PARA+LTG, n=5), median (IQR)
[20] = P4 rats, 30 min after ip paracetamol 15 mg/kg + valproate 30 mg/kg (PARA+VPA, n=4), median (IQR) or individual values
[21] = non-pregnant adult rats, 30 min after ip paracetamol 15 mg/kg + digoxin 0.03 mg/kg (PARA+DIG, n=3), median (IQR)
[22] = non-pregnant adult rats, 30 min after ip paracetamol 15 mg/kg + lamotrigine 6 mg/kg (PARA+LTG, n=3), median (IQR), individual values if <3 samples

CC(=O)Nc1ccc(O[C@@H]2O[C@H](C(=O)O)[C@@H](O)[C@H](O)[C@H]2O)cc1 [Paracetamol-Glucuronide, paracetamol-glucuronide]
Concentration in CSF [1]: N.D. (N.D. (not detected) are values <0.01μg/ml) | Concentration in brain [1]: N.D. (N.D. (not detected) are values <0.01μg/ml) | Concentration in CSF [2]: 0.2 µg/mL | Concentration in brain [2]: 0.5 µg/mL | Concentration in CSF [3]: N.D. (N.D. (not detected) are values <0.01μg/ml) | Concentration in brain [3]: N.D. (N.D. (not detected) are values <0.01μg/ml) | Concentration in brain [4]: 0.7 µg/mL | Concentration in CSF [5]: N.D. (N.D. (not detected) are values <0.01μg/ml) | Concentration in brain [6]: N.D. (N.D. (not detected) are values <0.01μg/ml) | Concentration in CSF [7]: N.D. (N.D. (not detected) are values <0.01μg/ml) | Concentration in brain [7]: N.D. (N.D. (not detected) are values <0.01μg/ml) | Concentration in CSF [8]: 0.2 (0.04) µg/ml | Concentration in CSF [9]: 0.1 (0.03) µg/ml | Concentration in brain [9]: 0.1 µg/mL | Concentration in CSF [10]: 0.2 (2) µg/ml | Concentration in brain [11]: 0.1 µg/mL | Concentration in CSF [12]: 0.1 (0.05) µg/ml | Concentration in brain [12]: 0.2 µg/mL | Concentration in CSF [13]: 0.5 µg/mL | Concentration in CSF [14]: 0.2 (0.1) µg/ml | Concentration in CSF [15]: 0.05 (0.04) µg/ml | Concentration in brain [16]: 0.2 µg/mL and 1 µg/mL | Concentration in CSF [17]: 0.1 µg/mL | Concentration in brain [17]: 0.1 µg/mL | Concentration in brain [18]: 2.0 µg/mL | change in plasma concentration following combination therapy (rat, in vivo): no significant changes

CC(=O)Nc1ccc(OS(=O)(=O)O)cc1 [Paracetamol-Sulfate, paracetamol-sulfate]
Concentration in CSF [1]: 0.06 (0.04) µg/ml | Concentration in brain [1]: 0.02 (0.02) µg/ml | Concentration in CSF [2]: 0.05 (0.04) µg/ml | Concentration in brain [2]: 0.01 (0.01) µg/ml | Concentration in plasma [2]: 0.9 (0.4) µg/ml | Concentration in plasma (E19 rats, maternal iv paracetamol 15 mg/kg + digoxin 0.03 mg/kg (PARA+DIG, n=9), median (IQR), listed as paracetamol-sulfate): 0.9 µg/mL | Concentration in CSF [3]: 0.08 (0.05) µg/ml | Concentration in brain [3]: 0.02 (0.02) µg/ml | Concentration in plasma [3]: 1.1 (0.4) µg/ml | Concentration in plasma (E19 rats, maternal iv paracetamol 15 mg/kg + olanzapine 0.15 mg/kg (PARA+OLZ, n=10), median (IQR)): 1.4 (0.5) µg/ml | Concentration in CSF [4]: 0.09 (0.06) µg/ml | Concentration in brain [4]: 0.05 (0.03) µg/ml | Concentration in CSF [5]: 0.06 (0.03) µg/ml | Concentration in plasma [6]: 0.9 (0.3) µg/ml | Concentration in plasma (E19 rats, maternal iv paracetamol 15 mg/kg + valproate 30 mg/kg (PARA+VPA, n=10), median (IQR), all values if <3 detected, listed as paracetamol-sulfate): 0.9 µg/mL | Concentration in CSF [7]: 0.09 (0.05) µg/ml | Concentration in brain [7]: 0.04 (0.03) µg/ml | Concentration in plasma [7]: 1.5 (0.4) µg/ml | Concentration in plasma (E19 rats, maternal iv paracetamol 15 mg/kg monotherapy (PARA, n=10), median (IQR), listed as paracetamol-sulfate): 1.5 µg/mL | Concentration in plasma (P4, monotherapy and combination therapy with any of the drugs investigated): around 5 µg/ml | Concentration in CSF [8]: 0.1 (0.02) µg/ml | Concentration in brain [8]: 0.06 (0.02) µg/ml | Concentration in plasma [8]: 7.5 (1.7) µg/ml | Concentration in CSF [9]: 0.1 (0.02) µg/ml | Concentration in brain [9]: 0.07 (0.04) µg/ml | Concentration in plasma [9]: 7.6 (3.3) µg/ml | Concentration in CSF [10]: 0.1 (1.6) µg/ml | Concentration in plasma [10]: 5.7 (1.4) µg/ml | Concentration in brain [11]: 0.04 µg/mL and 0.05 µg/mL | Concentration in CSF [19]: 0.07 (0.02) µg/ml | Concentration in brain [19]: 0.06 (0.02) µg/ml | Concentration in plasma [19]: 3.8 (0.9) µg/ml | Concentration in CSF [12]: 0.1 (0.04) µg/ml | Concentration in brain [12]: 0.08 (0.01) µg/ml | Concentration in plasma [12]: 7.2 (1.2) µg/ml | Concentration in CSF [13]: 0.05 ± 0.02 µg/mL | Concentration in brain [13]: 0.02 µg/mL | Concentration in plasma [13]: 2.7 (1.0) µg/ml | Concentration in CSF (P4 rats, 30 min after ip paracetamol 15 mg/kg + valproate 30 mg/kg (PARA+VPA, n=4), median (IQR)): 0.06 (0.01) µg/ml | Concentration in brain [20]: 0.05 µg/mL | Concentration in plasma [20]: 4.1 (2.1) µg/ml | Concentration in CSF [14]: 0.09 (0.05) µg/ml | Concentration in brain [14]: 0.09 (0.03) µg/ml | Concentration in plasma [14]: 3.1 (1.8) µg/ml | change in plasma concentration following combination therapy (adults, any of the drugs investigated, Kruskal-Wallis test): no significant changes | Concentration in brain (non-pregnant adult rats, 30 min after ip paracetamol 15 mg/kg + cimetidine 11 mg/kg (PARA+CIM, n=3), median (IQR)): 0.2 µg/mL | Concentration in plasma (non-pregnant adult rats, 30 min after ip paracetamol 15 mg/kg + cimetidine 11 mg/kg (PARA+CIM, n=3), median (IQR), individual values if <3 samples): 5.5 (1.4) µg/ml | Concentration in CSF [21]: 0.02 µg/mL | Concentration in plasma [21]: 7.2 (2.2) µg/ml | Concentration in brain (non-pregnant adult rats, 30 min after ip paracetamol 15 mg/kg + digoxin 0.03 mg/kg (PARA+DIG, n=3), median (IQR), individual values if <3 samples): 0.02 µg/mL | Concentration in CSF [15]: 0.07 (0.03) µg/ml | Concentration in plasma [15]: 12.9 (1.0) µg/ml | Concentration in brain [16]: 0.1 (0.4) µg/ml | Concentration in CSF [22]: 0.02 µg/mL and 0.04 µg/mL | Concentration in brain [22]: 0.1 µg/mL | Concentration in plasma [22]: 11.5 (0.7) µg/ml | Concentration in brain [17]: 0.2 (0.2) µg/ml | Concentration in plasma [17]: 14.8 (2.7) µg/ml | Concentration in brain (non-pregnant adult rats, 30 min after ip paracetamol 15 mg/kg + valproate 30 mg/kg (PARA+VPA, n=3), median (IQR)): 0.1 µg/mL | Concentration in plasma (non-pregnant adult rats, 30 min after ip paracetamol 15 mg/kg + valproate 30 mg/kg (PARA+VPA, n=3), median (IQR), individual values if <3 samples): 12.1 (0.4) µg/ml | Concentration in CSF [18]: 0.02 (0.01) µg/ml | Concentration in brain [18]: 0.1 (0.1) µg/ml | Concentration in plasma [18]: 8.8 (5.8) µg/ml

From publication PMC11911254 (Pharmacological Reports, 2025)
